Values of other authors, collected in patent US10525099B2, “Orally disintegrating solid pharmaceutical dosage unit containing a partus control substance” (Oxytone Bioscience B.V., priority 2014, dated 2020).
Bridge positions count the residues as written; N and C are the ends. Square brackets hold non-standard residues; d marks the D form. Peptide text beside a SMILES is read from it. Orn = NCCC[C@H](N)C(=O)O; Mpa = O=C(O)CCS

Tests used:
[1] = in vivo
[2] = lyophilized

half-life in the blood [1] | time stable at room temperature [2] [weeks] | SMILES
about three |  | CC[C@H](C)[C@@H]1NC(=O)[C@H](Cc2ccc(O)cc2)NC(=O)[C@@H](N)CSSC[C@@H](C(=O)N2CCC[C@H]2C(=O)N[C@@H](CC(C)C)C(=O)NCC(N)=O)NC(=O)[C@H](CC(N)=O)NC(=O)[C@H](CCC(N)=O)NC1=O [Oxytocin, cysteine-tyrosine-isoleucine-glutamine-asparagine-cysteine-proline-leucine-glycine-amide]
 | 3 | CCOc1ccc(C[C@H]2NC(=O)CCSSC[C@@H](C(=O)N3CCC[C@H]3C(=O)N[C@@H](CCCN)C(=O)NCC(N)=O)NC(=O)[C@H](CC(N)=O)NC(=O)[C@H]([C@@H](C)O)NC(=O)[C@H]([C@@H](C)CC)NC2=O)cc1 [atosiban] ([Mpa][dY](Et)ITNCP[Orn]G-NH2; disulfide 1-6)
